Series [1] concerns mice exposed to unpredictable chronic mild stress (UCMS). Nature of the series: Elevated plus maze after UCMS. The following applies: for EPM percentage of entries into open arms: first cohort (Figure 2). In kind it is in vivo, C57BL/6J mice.
A short description of series [2]: Plasma protein and brain tissue binding, rapid equilibrium dialysis. In kind it is in vitro ADME, mouse. An excerpt:
The rapid equilibrium dialysis assay used to determine free fraction of α5-PAM in mouse plasma and brain tissue was the same as in [Obradovic et al. (2014)].

For series [3], the system named is mice exposed to unpredictable chronic mild stress (UCMS). Nature of the series: Composite emotionality Z-score across EPM, OFT, NSF, cookie test. The series is classed as in vivo, C57BL/6J mice. Here is the method:
To assess the consistency of effects of stress and drug treatment on overall stress-induced behavior, we calculated behavioral z-scores using the formula below. These normalized scores integrate measures of behavioral dimensions (e.g., emotionality) over time and tests, yielding a combined measure of the UCMS-induced behavioral syndrome ([Guilloux et al., 2011]).
Briefly, for each behavioral measure a Z-score was calculated for an individual animal indicating how many standard deviations (σ) a given observation (X) is from the mean of the control group (μ). These scores were averaged within test such that each test had the same weight, and then averaged across all four tests (EPM, OFT, NSF, cookie test) to obtain a composite emotionality Z-score for each mouse. In short, random or opposite behavior across tests yield null z-scores, whereas significant and/or trend-like behaviors across tests and consistently in the same directions yield high z-scores.

Another series relates to Gabra5. Nature of the series: Gabra5 transcript expression by qPCR in prelimbic cortex and hippocampus. The series is classed as in vivo, C57BL/6J mice. The procedure: Twenty-four hours after the final behavioral test, mice were injected with either an acute dose of α5-PAM or vehicle 30 min prior to rapid perfusion (2 ml 4%PFA). Brains were rapidly dissected and flash frozen on dry ice. 160 μm thick coronal sections were obtained using a cryostat. The prelimbic cortex and dorsal hippocampus were dissected with a 1 mm diameter micropunch and tissue samples were then frozen at -80°C. Total RNA was extracted with an RNAeasy FFPE kit (Qiagen, Germantown, MD, USA) and tested for purity on a NanoDrop Spectrophotometer (260/280 ≥ 1.9). RNA concentration and integrity (RIN > 7) were then assessed using the Agilent RNA6000 Pico-Kit and Agilent 2100 Bioanalyzer (Agilent Technologies, Santa Clara, CA, USA).
Approximately 90 ng of total RNA was used to generate cDNA via the qScript^TM cDNA Supermix synthesis kit (Quanta Biosciences, Gaithersburg, MD, USA). Real-time quantitative polymerase chain (qPCR) reactions were carried out using SYBR green fluorescence signal (Invitrogen, Carlsbad, CA, USA) and an Opticon Monitor DNA Engine (Bio-Rad, Berkeley, CA, USA). Gene of interest was the α5-subunit of the GABAA receptor (Gabra5). Samples were run in triplicate and ΔCt values were calculated by comparing the Ct values of Gabra5 to the geometric mean of two reference genes, β-Actin and glyceraldehyde 3-phosphate dehydrogenase (Gapdh). Arbitrary signal intensity was calculated as 2^-ΔCt∗10,000.
A general note: Real-time PCR tracks product formation cycle by cycle.

Entries after “also recorded” stand apart in the source; their conditions may differ.

For `C#Cc1ccc2c(c1)C(c1ccccc1F)=N[C@H](C)c1c(C(=O)OCC)ncn1-2` [α5-PAM], the “EPM open arm behavior” value in series [1] (female UCMS mice, acute or chronic treatment, second cohort with non-stressed controls (Figure 3)) was “no effect”. Besides, the “EPM percentage of entries into open arms” value is “anti-stress effect; also recorded: increased percentage of open arm entries” in series [1] (female UCMS mice, chronic 30 mg/kg i.p., vs UCMS-vehicle) and “No significant differences; also recorded: no effect” in series [1] (male UCMS mice, acute or chronic 30 mg/kg i.p.). Also, the “EPM, stress-induced behavior” value in series [1] (male UCMS mice, 37.5 mg/kg acute or chronic (Figure 4B), 37.5 mg/kg) is “No change; also recorded: failed to reduce”. Moreover, the “EPM, UCMS-induced behavioral phenotype” value in series [1] (male mice, UCMS plus single housing, chronic treatment (Figure 4A)) is “did not alter; also recorded: No significant effect”. In addition, the “free fraction, brain tissue” value in series [2] (mouse brain tissue) is 2.73%. The “free fraction, plasma” value in series [2] (mouse plasma) is listed as 7.44%. Also, the Z-emotionality score result is recorded as “Significant anti-stress effect” in series [3] (female UCMS mice, acute 30 mg/kg i.p., first cohort (Figure 2)); “normalized; also recorded: significantly decreased” in series [3] (female UCMS mice, acute treatment, vs UCMS-vehicle, second cohort (Figure 3)); “Significant anti-stress effect” in series [3] (female UCMS mice, chronic 30 mg/kg i.p., first cohort (Figure 2)); “normalized; also recorded: significantly decreased” in series [3] (female UCMS mice, chronic treatment, vs UCMS-vehicle, second cohort (Figure 3)); “no effect” in series [3] (male UCMS mice, acute or chronic 30 mg/kg i.p., first cohort (Figure 2)). In series [3] (female UCMS mice, acute and chronic treatment groups, second cohort (Figure 3)), the “Z-emotionality score compared to non-stressed vehicle group” value was “not statistically different”. The “Composite emotionality Z-score” value in series [3] (male UCMS mice, 37.5 mg/kg acute or chronic (Figure 4D), 37.5 mg/kg) is on record as “No effect; also recorded: lack of anti-stress activity”. In addition, the “Summary emotionality Z-score” value in series [3] (male mice, UCMS plus single housing, chronic treatment (Figure 4C)) is reported as “lack of effect; also recorded: does not remediate”. Also, the “Gabra5 (α5) transcript expression, prelimbic cortex” value in the series on Gabra5 (female UCMS mice, acute treatment) is listed as “significantly increased; also recorded: increases”; in the series on Gabra5 (male or female UCMS mice, chronic treatment), “No effect”. The “Gabra5 (α5-subunit) transcript expression, hippocampus” value with Gabra5 (female UCMS mice, chronic treatment) is listed as “increases”. In the series on Gabra5 (male UCMS mice, acute or chronic treatment, prelimbic cortex and hippocampus), the Gabra5 gene expression result was “No change”.

(Values after article PMC5118774 (Frontiers in Pharmacology, 2016).)
